# Source: article PMC10636063, “Progesterone activation of β1-containing BK channels involves two binding sites” (Nature Communications, 2023)
# Several values for one entry are separate records, joined by “and”; a condition that tells them apart may be missing. Equal values may be shown once.
# What was measured:
# [1] = molecular target: T1, cbv1+β1Y32V (Rattus norvegicus, UniProt P97678, Y32V); test: Channel activity (NPo) in POPE/POPS bilayers, cbv1+β1Y32V; format: biochemical; settings: for normalized NPo, time course Fig 2E: Y32V PROG
# T1 construct: made in house; host or cells: CHO cells, transient transfection; sucrose-gradient membrane preparation
# Excerpt: (§1) BK channel-forming slo1 cDNA (cbv1 isoform; AY330293) was cloned from rat cerebral artery SM cells, and inserted into pcDNA3.1 vector as described. BK β1 cDNA (KCNMB1 product; NP_011452; FJ154955) were isolated from rat cerebral artery SM cells and cloned as described. β4 cDNA (KCNMB4; NP_055320; AY028605) were generously provided by Dr. Ligia Toro. CHO cells were transiently transfected with cbv1 ± β1-, or β4-carrying pcDNA3.1 using X-tremeGENE HP (Sigma-Aldrich). Mutations to β1/4 cDNAs were conducted by Genscript, with sequences being confirmed to be >99% identical to KCNMB1 product; NP_011452 or β4 KCNMB4; NP_055320; respectively. β1/4 and mutant constructs were flag-tagged (DYKDDDDK-tag) by Genscript services for subsequent immunoprecipitation and use in microscale thermophoresis studies.
# Proteins for electrophysiological recordings in artificial lipid bilayers remained untagged. Cells were transiently transfected as described above, pelleted and re-suspended on ice in 10 ml of buffer solution of the following composition (mM): 30 KCl, 2 MgCl2, 10 HEPES, 5 EGTA; pH 7.2. A membrane preparation was obtained using a sucrose gradient as described. Aliquots were stored at −80 °C. BK channel-mediated ionic current was recorded in planar lipid bilayers consisting of a POPE:POPS 3:1 (w/w) mixture. Lipid mixtures were dried under N2 and re-suspended in 25 mg/ml of n-decane BK currents following incorporation into horizontal bilayers at 300/30 mM cis/trans gradient as detailed elsewhere. Ion currents were obtained during a 10-min gap-free recording at 0 mV in the presence of 0.01, 10 μM PROG, 10 μM PROG-oxime, or vehicle control (dimethyl sulfoxide; DMSO). Currents were obtained in gap-free mode using a Warner BC-525D amplifier, low pass-filtered at 1 kHz and sampled at 5 kHz with Digidata 1550B/pCLAMP 11 (Molecular Devices). For comparison with previous data from us[16],[17],[45]–[47], studies were conducted at 20–22 °C. PROG stock, oxime stock or vehicle control (DMSO) was added to the bilayer cis chamber to reach final concentrations (0.01–10 µM), with all compounds being dissolved with the same concentration of DMSO (0.1%); n = 5–10 for each group.
# Patch-clamp and bilayer data were analyzed using Clampfit 10.7 software (Molecular Devices). NPo was used as an index of channel steady-state activity where N = number of channels in the patch (defined as a maximal number of opening levels at Po≤1) and Po=single channel open probability. Drug-induced NPo changes were determined by comparing baseline NPo (i.e., NPo with the patch/cell perfused with bath solution) to the NPo from the same patch/cell exposed to the agent under study (DMSO/PROG/oxime) dissolved in bath solution. NPo and mean open time values were automatically calculated using Clampfit 10.7, the latter using a 50% threshold detection event.
# [2] = molecular target: T2, β1Y32F (Rattus norvegicus, UniProt P97678, Y32F); test: Thermal unfolding (MST) of β1Y32F; format: binding
# T2 construct: FLAG (DYKDDDDK); made in house; host or cells: CHO cells, transient transfection, anti-flag immunoprecipitation
# Excerpt: as §1
# Wt β1, wt β4 and mutant constructs were purified by immunoprecipitation using Dynabeads Protein G Kit (10007D by Invitrogen) and following the manufacturer’s instructions. […] The unfolding profile of a protein is a plot of its fluorescence signal against temperature. […] During the heating process, fluorescence is recorded at 330 and 350 nm. The resulting fluorescence ratio change is then analyzed for onset and inflection points. The temperature of onset and inflection is determined using built-in analysis function in Nanotemper PR.therm-control software. […]
# T1 sequence (P97678 whole entry Y32V): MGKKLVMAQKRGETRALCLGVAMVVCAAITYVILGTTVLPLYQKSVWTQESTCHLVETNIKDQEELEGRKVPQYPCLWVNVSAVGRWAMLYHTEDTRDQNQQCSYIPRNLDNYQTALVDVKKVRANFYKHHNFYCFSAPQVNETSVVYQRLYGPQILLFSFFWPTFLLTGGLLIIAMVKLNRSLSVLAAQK
# T1 sequence (Q62976 1-1148 isoform Q62976-2 partner): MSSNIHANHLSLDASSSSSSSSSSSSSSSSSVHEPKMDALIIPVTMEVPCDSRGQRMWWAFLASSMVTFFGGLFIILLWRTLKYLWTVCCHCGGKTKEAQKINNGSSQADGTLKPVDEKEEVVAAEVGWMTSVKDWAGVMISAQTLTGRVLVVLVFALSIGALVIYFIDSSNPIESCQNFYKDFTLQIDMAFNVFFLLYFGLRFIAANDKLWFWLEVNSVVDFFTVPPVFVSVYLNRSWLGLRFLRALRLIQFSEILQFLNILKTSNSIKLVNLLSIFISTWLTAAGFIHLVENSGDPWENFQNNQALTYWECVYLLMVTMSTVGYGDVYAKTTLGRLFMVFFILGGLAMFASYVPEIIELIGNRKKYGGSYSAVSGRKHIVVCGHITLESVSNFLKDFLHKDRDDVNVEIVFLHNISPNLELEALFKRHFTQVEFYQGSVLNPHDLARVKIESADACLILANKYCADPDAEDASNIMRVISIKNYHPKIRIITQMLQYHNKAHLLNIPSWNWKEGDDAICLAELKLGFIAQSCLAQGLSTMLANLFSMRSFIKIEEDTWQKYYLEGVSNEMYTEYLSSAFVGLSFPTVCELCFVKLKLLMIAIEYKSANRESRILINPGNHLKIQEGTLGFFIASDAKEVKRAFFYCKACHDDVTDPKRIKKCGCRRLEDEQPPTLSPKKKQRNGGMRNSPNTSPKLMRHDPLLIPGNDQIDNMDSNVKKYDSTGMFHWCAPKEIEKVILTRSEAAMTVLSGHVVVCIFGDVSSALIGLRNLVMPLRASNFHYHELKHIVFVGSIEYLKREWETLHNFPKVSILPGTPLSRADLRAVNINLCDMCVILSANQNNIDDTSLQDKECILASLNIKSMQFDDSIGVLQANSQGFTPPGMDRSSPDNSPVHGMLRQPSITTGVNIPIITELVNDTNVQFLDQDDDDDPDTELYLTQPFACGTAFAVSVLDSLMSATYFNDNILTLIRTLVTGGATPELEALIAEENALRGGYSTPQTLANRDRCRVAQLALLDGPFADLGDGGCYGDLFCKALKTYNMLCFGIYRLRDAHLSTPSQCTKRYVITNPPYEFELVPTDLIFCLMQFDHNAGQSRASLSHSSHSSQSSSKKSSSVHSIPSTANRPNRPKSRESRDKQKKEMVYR
# T2 sequence (P97678 whole entry Y32F): as the sequence (P97678 whole entry Y32V) above, with V32F counted along it
compound,measurement,setting,value
"CC(=O)[C@H]1CC[C@H]2[C@@H]3CCC4=CC(=O)CC[C@]4(C)[C@H]3CC[C@]12C [PROG, Progesterone]",action on channel activity (NPo),"[1]; 10 µM, vs DMSO",effectively abolished PROG action
same,"normalized NPo, time course Fig 2E",[1]; time 1 min (normalisation reference),1
same,"normalized NPo, time course Fig 2E",[1]; time 3 min,1.125 and 0.8919 and 0.9083 and 0.945 and 0.929
same,"normalized NPo, time course Fig 2E",[1]; time 5 min,0.9853 and 0.9339 and 0.8202 and 0.8981 and 0.6799
same,"normalized NPo, time course Fig 2E",[1]; time 6 min,1.106 and 1.228 and 1.117 and 1.276 and 0.8487
same,"normalized NPo, time course Fig 2E",[1]; time 7 min,1.144 and 0.9028 and 1.206 and 0.9453
same,"normalized NPo, time course Fig 2E",[1]; time 8 min,0.6757 and 1.202 and 0.918 and 1.1397
same,"normalized NPo, time course Fig 2E",[1]; time 9 min,0.5676 and 0.9266 and 0.822 and 1.088
same,"normalized NPo, time course Fig 2E",[1]; time 10 min,0.7195 and 0.8661 and 0.9555 and 1.102
same,binding,[2],still bind PROG
